Laboratory results: ChEMBL document CHEMBL1201861, “Genomics of Drug Sensitity in Cancer screening data, Wellcome Trust Sanger Institute”

Columns and labels:
Experiment in all cases: cells
[1] = tested on: JAR; format: functional, cell-based, Homo sapiens; conditions: Homo sapiens, JAR;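 further: growth inhibition of human JAR cells determined with a cell viability assay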
Description: SANGER: Inhibition of human JAR cell growth in a cell viability assay.

[2] = tested on: NCI-H1650; format: functional, cell-based, Homo sapiens; conditions: Homo sapiens, NCI-H1650;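 further: growth inhibition of human NCI-H1650 cells measured by a cell viability assay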
Description: SANGER: Inhibition of human NCI-H1650 cell growth in a cell viability assay.

[3] = tested on: HuTu80; format: functional, cell-based, Homo sapiens, HUTU-80; conditions: Homo sapiens, HuTu80;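 further: growth inhibition of HuTu80 human cells, determined with a cell viability readout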
Description: SANGER: Inhibition of human HUTU-80 cell growth in a cell viability assay.

[4] = tested on: GCT; format: functional, cell-based, Homo sapiens; conditions: Homo sapiens, GCT;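 further: GCT cell line proliferation inhibition, read out with a cell viability assay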
Description: SANGER: Inhibition of human GCT cell growth in a cell viability assay.

[5] = tested on: KARPAS-45; format: functional, cell-based; conditions: Homo sapiens;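 further: inhibition of cell line growth, read out through a viability assay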
Description: SANGER: Inhibition of human KARPAS-45 cell growth in a cell viability assay.

[6] = tested on: 8305C; format: functional, cell-based, Homo sapiens; conditions: Homo sapiens, 8305C
Description: SANGER: Inhibition of human 8305C cell growth in a cell viability assay.

[7] = tested on: SK-MEL-24; format: functional, cell-based; conditions: Homo sapiens;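 further: growth inhibition read out by a cell viability assay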
Description: SANGER: Inhibition of human SK-MEL-24 cell growth in a cell viability assay.

[8] = tested on: TE-6; format: functional, cell-based, Homo sapiens; conditions: Homo sapiens, TE-6;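 further: growth inhibition of TE-6 cells, read out with a cell viability assay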
Description: SANGER: Inhibition of human TE-6 cell growth in a cell viability assay.

[9] = tested on: LC-2-ad; format: functional, cell-based, Homo sapiens; conditions: Homo sapiens, LC-2-ad;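 further: growth inhibition of human LC-2-ad cells, read out with a cell viability assay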
Description: SANGER: Inhibition of human LC-2-ad cell growth in a cell viability assay.

[10] = tested on: LN-405; format: functional, cell-based, Homo sapiens; conditions: Homo sapiens, LN-405
Description: SANGER: Inhibition of human LN-405 cell growth in a cell viability assay.

[11] = tested on: NOMO-1; format: functional, cell-based; conditions: Homo sapiens;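 further: growth inhibition of human NOMO-1 cells measured by a cell viability assay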
Description: SANGER: Inhibition of human NOMO-1 cell growth in a cell viability assay.

[12] = tested on: CTB-1; format: functional, cell-based; conditions: Homo sapiens
Description: SANGER: Inhibition of human CTB-1 cell growth in a cell viability assay.

[13] = tested on: D-247MG; format: functional, cell-based, Homo sapiens; conditions: Homo sapiens, D-247MG
Description: SANGER: Inhibition of human D-247MG cell growth in a cell viability assay.

[14] = tested on: DBTRG-05MG; format: functional, cell-based, Homo sapiens; conditions: Homo sapiens, DBTRG-05MG;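 further: cell viability assay measuring growth inhibition of human DBTRG-05MG cells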
Description: SANGER: Inhibition of human DBTRG-05MG cell growth in a cell viability assay.

[15] = tested on: MV4-11; format: functional, cell-based, MV-4-11; conditions: Homo sapiens;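 further: cell viability readout measuring growth inhibition of human MV-4-11 cells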
Description: SANGER: Inhibition of human MV-4-11 cell growth in a cell viability assay.

[16] = tested on: BB49-HNC; format: functional, cell-based, Homo sapiens; conditions: Homo sapiens, BB49-HNC;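 further: cell viability assay read-out, reported as inhibition of BB49-HNC cell growth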
Description: SANGER: Inhibition of human BB49-HNC cell growth in a cell viability assay.

[17] = tested on: SW 962; format: functional, cell-based, Homo sapiens; conditions: Homo sapiens, SW 962;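 further: growth inhibition of human SW962 cells, read out by a cell viability assay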
Description: SANGER: Inhibition of human SW962 cell growth in a cell viability assay.

[18] = tested on: NCI-H526; format: functional, cell-based; conditions: Homo sapiens;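 further: growth inhibition of the human NCI-H526 cell line, measured by a cell viability assay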
Description: SANGER: Inhibition of human NCI-H526 cell growth in a cell viability assay.

[19] = tested on: COLO-792; format: functional, cell-based, Homo sapiens; conditions: Homo sapiens, COLO-792
Description: SANGER: Inhibition of human COLO-792 cell growth in a cell viability assay.

[20] = tested on: TGBC24TKB; format: functional, cell-based, Homo sapiens; conditions: Homo sapiens, TGBC24TKB;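 further: growth inhibition of human TGBC24TKB cells, read out with a cell viability assay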
Description: SANGER: Inhibition of human TGBC24TKB cell growth in a cell viability assay.

[21] = tested on: NCI-H2342; format: functional, cell-based; conditions: Homo sapiens;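 further: growth inhibition of the cancer cell line, determined with a cell viability assay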
Description: SANGER: Inhibition of human NCI-H2342 cell growth in a cell viability assay.

[22] = tested on: ETK-1; format: functional, cell-based, Homo sapiens; conditions: Homo sapiens, ETK-1;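 further: growth inhibition of human ETK-1 cells, read out with a cell viability assay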
Description: SANGER: Inhibition of human ETK-1 cell growth in a cell viability assay.

[23] = tested on: SCC-15; format: functional, cell-based, Homo sapiens; conditions: Homo sapiens, SCC-15;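 further: growth inhibition of SCC-15 cells, read out with a cell viability assay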
Description: SANGER: Inhibition of human SCC-15 cell growth in a cell viability assay.

[24] = tested on: LB831-BLC; format: functional, cell-based, Homo sapiens; conditions: Homo sapiens, LB831-BLC;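 further: growth inhibition of LB831-BLC cells, read out with a cell viability assay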
Description: SANGER: Inhibition of human LB831-BLC cell growth in a cell viability assay.

[25] = tested on: GR-ST; format: functional, cell-based; conditions: Homo sapiens
Description: SANGER: Inhibition of human GR-ST cell growth in a cell viability assay.

[26] = tested on: UACC-893; format: functional, cell-based, Homo sapiens; conditions: Homo sapiens, UACC-893
Description: SANGER: Inhibition of human UACC-893 cell growth in a cell viability assay.

[27] = tested on: ES5; format: functional, cell-based, Homo sapiens; conditions: Homo sapiens, ES5;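 further: growth inhibition of human ES5 cells, read out by a cell viability assay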
Description: SANGER: Inhibition of human ES5 cell growth in a cell viability assay.

[28] = tested on: RMG-I; format: functional, cell-based, Homo sapiens; conditions: Homo sapiens, RMG-I;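 further: growth inhibition of human RMG-I cells, read out with a cell viability assay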
Description: SANGER: Inhibition of human RMG-I cell growth in a cell viability assay.

[29] = tested on: KG-1; format: functional, cell-based; conditions: Homo sapiens;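 further: growth inhibition of KG-1 cells, read out by a cell viability assay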
Description: SANGER: Inhibition of human KG-1 cell growth in a cell viability assay.

[30] = tested on: MOLT-16; format: functional, cell-based; conditions: Homo sapiens;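 further: growth inhibition of human MOLT-16 cells, read out with a cell viability assay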
Description: SANGER: Inhibition of human MOLT-16 cell growth in a cell viability assay.

[31] = tested on: MC116; format: functional, cell-based; conditions: Homo sapiens;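 further: growth inhibition of MC116 cells, read out with a cell viability assay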
Description: SANGER: Inhibition of human MC116 cell growth in a cell viability assay.

[32] = tested on: SW-620; format: functional, cell-based, Homo sapiens; conditions: Homo sapiens, SW-620;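 further: growth inhibition of human SW-620 cells, measured by a cell viability assay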
Description: SANGER: Inhibition of human SW620 cell growth in a cell viability assay.

[33] = tested on: SW684; format: functional, cell-based, Homo sapiens; conditions: Homo sapiens, SW684;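 further: growth inhibition of human SW684 cells, measured by a cell viability assay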
Description: SANGER: Inhibition of human SW684 cell growth in a cell viability assay.

[34] = tested on: LoVo; format: functional, cell-based; conditions: Homo sapiens;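 further: growth inhibition of human LoVo cells, read out with a cell viability assay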
Description: SANGER: Inhibition of human LoVo cell growth in a cell viability assay.

[35] = tested on: HuO-3N1; format: functional, cell-based, Homo sapiens; conditions: Homo sapiens, HuO-3N1;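 further: cell viability readout used to measure how strongly compounds suppress proliferation of human HuO-3N1 cells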
Description: SANGER: Inhibition of human HuO-3N1 cell growth in a cell viability assay.

[36] = tested on: BT-20; format: functional, cell-based, Homo sapiens; conditions: Homo sapiens, BT-20;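 further: cell viability assay measuring suppression of growth in human BT-20 cells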
Description: SANGER: Inhibition of human BT-20 cell growth in a cell viability assay.

[37] = tested on: NB5; format: functional, cell-based, Homo sapiens; conditions: Homo sapiens, NB5;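 further: growth inhibition of NB5 cells, read out as cell viability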
Description: SANGER: Inhibition of human NB5 cell growth in a cell viability assay.

[38] = tested on: NCI-H1092; format: functional, cell-based; conditions: Homo sapiens;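 further: cell growth inhibition measured with a cell viability assay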
Description: SANGER: Inhibition of human NCI-H1092 cell growth in a cell viability assay.

[39] = tested on: Daoy; format: functional, cell-based, Homo sapiens; conditions: Homo sapiens, Daoy;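 further: daoy cell growth inhibition, read out as cell viability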
Description: SANGER: Inhibition of human Daoy cell growth in a cell viability assay.

[40] = tested on: GB-1; format: functional, cell-based, Homo sapiens; conditions: Homo sapiens, GB-1;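 further: growth of GB-1 cells judged by a viability assay, IC50 marks the concentration inhibiting growth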
Description: SANGER: Inhibition of human GB-1 cell growth in a cell viability assay.

[41] = tested on: KURAMOCHI; format: functional, cell-based; conditions: Homo sapiens;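 further: growth inhibition of KURAMOCHI cells, read out with a cell viability assay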
Description: SANGER: Inhibition of human KURAMOCHI cell growth in a cell viability assay.

[42] = tested on: RVH-421; format: functional, cell-based, Homo sapiens; conditions: Homo sapiens, RVH-421
Description: SANGER: Inhibition of human RVH-421 cell growth in a cell viability assay.

[43] = tested on: SF-126; format: functional, cell-based, Homo sapiens; conditions: Homo sapiens, SF-126;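 further: growth inhibition of human SF126 cells, read out with a cell viability assay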
Description: SANGER: Inhibition of human SF126 cell growth in a cell viability assay.

[44] = tested on: KYSE-410; format: functional, cell-based, Homo sapiens; conditions: Homo sapiens, KYSE-410;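 further: growth inhibition of KYSE-410 cells, measured through a cell viability readout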
Description: SANGER: Inhibition of human KYSE-410 cell growth in a cell viability assay.

[45] = tested on: SiHa; format: functional, cell-based, Homo sapiens; conditions: Homo sapiens, SiHa;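 further: Viability-based readout of growth inhibition in SiHa cells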
Description: SANGER: Inhibition of human SiHa cell growth in a cell viability assay.

[46] = tested on: DJM-1; format: functional, cell-based, Homo sapiens; conditions: Homo sapiens, DJM-1;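 further: growth inhibition of human DJM-1 cells, read out by a cell viability assay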
Description: SANGER: Inhibition of human DJM-1 cell growth in a cell viability assay.

[47] = tested on: EGI-1; format: functional, cell-based, Homo sapiens; conditions: Homo sapiens, EGI-1;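 further: cell viability readout used to gauge growth inhibition of EGI-1 cells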
Description: SANGER: Inhibition of human EGI-1 cell growth in a cell viability assay.

[48] = tested on: G-402; format: functional, cell-based, Homo sapiens; conditions: Homo sapiens, G-402
Description: SANGER: Inhibition of human G-402 cell growth in a cell viability assay.

[49] = tested on: MSTO-211H; format: functional, cell-based, Homo sapiens; conditions: Homo sapiens, MSTO-211H
Description: SANGER: Inhibition of human MSTO-211H cell growth in a cell viability assay.

[50] = tested on: OAW-28; format: functional, cell-based, Homo sapiens; conditions: Homo sapiens, OAW-28;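 further: growth inhibition of OAW-28 cells, read out with a cell viability assay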
Description: SANGER: Inhibition of human OAW-28 cell growth in a cell viability assay.

[51] = tested on: COLO-320-HSR; format: functional, cell-based; conditions: Homo sapiens;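 further: growth inhibition of COLO-320-HSR cells, determined with a cell viability assay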
Description: SANGER: Inhibition of human COLO-320-HSR cell growth in a cell viability assay.

[52] = tested on: KM-H2; format: functional, cell-based; conditions: Homo sapiens;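 further: growth inhibition of KM-H2 cells, read out by a cell viability assay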
Description: SANGER: Inhibition of human KM-H2 cell growth in a cell viability assay.

CCC1=C[C@@H]2CN(C1)Cc1c([nH]c3ccccc13)[C@@](C(=O)OC)(c1cc3c(cc1OC)N(C)[C@H]1[C@@](O)(C(=O)OC)[C@H](OC(C)=O)[C@]4(CC)C=CCN5CC[C@]31[C@@H]54)C2 [VINORELBINE]
IC50 [1]: > 64 nM
IC50 [2]: 40.7 nM
IC50 [3]: 2.18 nM
IC50 [4]: 50.8 nM
IC50 [5]: 5.74 nM
IC50 [6]: 4.92 nM
IC50 [7]: > 64 nM
IC50 [8]: > 64 nM
IC50 [9]: 4.98 nM
IC50 [10]: > 64 nM
IC50 [11]: 19 nM
IC50 [12]: 19.8 nM
IC50 [13]: 12.6 nM
IC50 [14]: 3.88 nM
IC50 [15]: 10.4 nM
IC50 [16]: > 64 nM
IC50 [17]: 27.8 nM
IC50 [18]: 8.68 nM
IC50 [19]: > 64 nM
IC50 [20]: 20.1 nM
IC50 [21]: 4.78 nM
IC50 [22]: 6.92 nM
IC50 [23]: 8.7 nM
IC50 [24]: 29.2 nM
IC50 [25]: 8.27 nM
IC50 [26]: > 64 nM
IC50 [27]: > 64 nM
IC50 [28]: > 64 nM
IC50 [29]: > 64 nM
IC50 [30]: 12.8 nM
IC50 [31]: 15.5 nM
IC50 [32]: 8.52 nM
IC50 [33]: 24.2 nM
IC50 [34]: 7.9 nM
IC50 [35]: 13 nM
IC50 [36]: 12.4 nM
IC50 [37]: > 64 nM
IC50 [38]: 58.1 nM
IC50 [39]: 6.65 nM
IC50 [40]: > 64 nM
IC50 [41]: 2.81 nM
IC50 [42]: 3.88 nM
IC50 [43]: > 64 nM
IC50 [44]: 6.21 nM
IC50 [45]: > 64 nM
IC50 [46]: 15.9 nM
IC50 [47]: > 64 nM
IC50 [48]: 32.1 nM
IC50 [49]: > 64 nM
IC50 [50]: 15.2 nM
IC50 [51]: > 64 nM
IC50 [52]: 9.11 nM
